Experimental data as given in PubChem BioAssay AID1963958 (Molecular Pharmacology Branch, DTP, NCI, 2024).
Where “and” joins values, the source holds several entries; their conditions need not be identical. Equal values may be shown once. One block for each compound: values may come before it.

System: MDA-MB-231 multicell spheroids, viability
Assay: Anticancer human tumor MDA-MB-231 cell line growth inhibition [PI3K];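 also: spheroids exposed to agents for seven days before reading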;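 as to viability, T/C: percent of vehicle control luminescence with DMSO treated spheroids as 100%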
Details: for viability, T/C: stronger effect = lower value
Summary of the method: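 Targeted small molecules plus PI3K inhibitors, half-log dose series from Cmax (default top 10 microM), were applied to heterotypic spheroids of cancer cells with HUVEC and MSCs. Viability indicated growth inhibition.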

[1] = curve of first compound, second compound 0.0316 µM
[2] = curve of first compound, second compound 0.1 µM
[3] = curve of first compound, second compound 0.316 µM
[4] = curve of first compound, second compound 1 µM
[5] = curve of first compound, second compound 0.00316 µM
[6] = curve of first compound, second compound 0.01 µM
[7] = second compound 0.00316 µM, first compound 0.0316 µM
[8] = second compound 0.00316 µM, first compound 0.1 µM
[9] = second compound 0.00316 µM, first compound 0.316 µM
[10] = second compound 0.00316 µM, first compound 1 µM
[11] = second compound 0.00316 µM, first compound 3.16 µM
[12] = second compound 0.00316 µM, first compound 10 µM
[13] = second compound 0.01 µM, first compound 0.0316 µM
[14] = second compound 0.01 µM, first compound 0.1 µM
[15] = second compound 0.01 µM, first compound 0.316 µM
[16] = second compound 0.01 µM, first compound 1 µM
[17] = second compound 0.01 µM, first compound 3.16 µM
[18] = second compound 0.01 µM, first compound 10 µM
[19] = second compound 0.0316 µM, first compound 0.0316 µM
[20] = second compound 0.0316 µM, first compound 0.1 µM
[21] = second compound 0.0316 µM, first compound 0.316 µM
[22] = second compound 0.0316 µM, first compound 1 µM
[23] = second compound 0.0316 µM, first compound 3.16 µM
[24] = second compound 0.0316 µM, first compound 10 µM
[25] = second compound 0.1 µM, first compound 0.0316 µM
[26] = second compound 0.1 µM, first compound 0.1 µM
[27] = second compound 0.1 µM, first compound 0.316 µM
[28] = second compound 0.1 µM, first compound 1 µM
[29] = second compound 0.1 µM, first compound 3.16 µM
[30] = second compound 0.1 µM, first compound 10 µM
[31] = second compound 0.316 µM, first compound 0.0316 µM
[32] = second compound 0.316 µM, first compound 0.1 µM
[33] = second compound 0.316 µM, first compound 0.316 µM
[34] = second compound 0.316 µM, first compound 1 µM
[35] = second compound 0.316 µM, first compound 3.16 µM
[36] = second compound 0.316 µM, first compound 10 µM
[37] = second compound 1 µM, first compound 0.0316 µM
[38] = second compound 1 µM, first compound 0.1 µM
[39] = second compound 1 µM, first compound 0.316 µM
[40] = second compound 1 µM, first compound 1 µM
[41] = second compound 1 µM, first compound 3.16 µM
[42] = second compound 1 µM, first compound 10 µM

IC50 [1]: 208 nM
IC50 [2]: 170 nM
IC50 [3]: 41.7 nM
IC50 [4]: 24.5 nM
IC50 (curve of first compound, second compound 3.16 µM): < 9.49 nM
IC50 (curve of first compound, second compound 10 µM): < 9.49 nM
SMILES: Cn1cnc2c(F)c(Nc3ccc(Br)cc3Cl)c(C(=O)NOCCO)cc21 + CC(Nc1ncnc2nc[nH]c12)c1cc2cccc(Cl)c2c(=O)n1-c1ccccc1
viability, T/C (second compound 0.0316 µM, first compound 0.00949 µM): 75%
viability, T/C (second compound 0.0316 µM, first compound 0.03 µM): 63.7%
viability, T/C (second compound 0.0316 µM, first compound 0.0949 µM): 50.3%
viability, T/C (second compound 0.0316 µM, first compound 0.3 µM): 50.5%
viability, T/C (second compound 0.0316 µM, first compound 0.949 µM): 44.5%
viability, T/C (second compound 0.0316 µM, first compound 3 µM): 31.8%
viability, T/C (second compound 0.1 µM, first compound 0.00949 µM): 72.2%
viability, T/C (second compound 0.1 µM, first compound 0.03 µM): 63.9%
viability, T/C (second compound 0.1 µM, first compound 0.0949 µM): 50.2%
viability, T/C (second compound 0.1 µM, first compound 0.3 µM): 47.5%
viability, T/C (second compound 0.1 µM, first compound 0.949 µM): 41.8%
viability, T/C (second compound 0.1 µM, first compound 3 µM): 30.6%
viability, T/C (second compound 0.316 µM, first compound 0.00949 µM): 65%
viability, T/C (second compound 0.316 µM, first compound 0.03 µM): 53%
viability, T/C (second compound 0.316 µM, first compound 0.0949 µM): 42.3%
viability, T/C (second compound 0.316 µM, first compound 0.3 µM): 41%
viability, T/C (second compound 0.316 µM, first compound 0.949 µM): 39.1%
viability, T/C (second compound 0.316 µM, first compound 3 µM): 34.6%
viability, T/C (second compound 1 µM, first compound 0.00949 µM): 56.1%
viability, T/C (second compound 1 µM, first compound 0.03 µM): 50.5%
viability, T/C (second compound 1 µM, first compound 0.0949 µM): 37.7%
viability, T/C (second compound 1 µM, first compound 0.3 µM): 39%
viability, T/C (second compound 1 µM, first compound 0.949 µM): 33.2%
viability, T/C (second compound 1 µM, first compound 3 µM): 26.8%
viability, T/C (second compound 3.16 µM, first compound 0.00949 µM): 44.7%
viability, T/C (second compound 3.16 µM, first compound 0.03 µM): 36.4%
viability, T/C (second compound 3.16 µM, first compound 0.0949 µM): 28.8%
viability, T/C (second compound 3.16 µM, first compound 0.3 µM): 27.1%
viability, T/C (second compound 3.16 µM, first compound 0.949 µM): 26.2%
viability, T/C (second compound 3.16 µM, first compound 3 µM): 19.8%
viability, T/C (second compound 10 µM, first compound 0.00949 µM): 32.8%
viability, T/C (second compound 10 µM, first compound 0.03 µM): 29.2%
viability, T/C (second compound 10 µM, first compound 0.0949 µM): 21.7%
viability, T/C (second compound 10 µM, first compound 0.3 µM): 22.6%
viability, T/C (second compound 10 µM, first compound 0.949 µM): 24%
viability, T/C (second compound 10 µM, first compound 3 µM): 12.9%

IC50 [5]: > 10000 nM
IC50 [6]: > 10000 nM
IC50 [1]: > 10000 nM
IC50 [2]: < 31.6 nM
IC50 [3]: < 31.6 nM
IC50 [4]: < 31.6 nM
SMILES: C=CC(=O)N1CCN(c2nc(=O)n(-c3c(C)ccnc3C(C)C)c3nc(-c4c(O)cccc4F)c(F)cc23)C(C)C1 (configuration not stated) + COc1c(OCCCN2CCOCC2)ccc2c3n(c(=NC(=O)c4cnc(N)nc4)nc12)CCN3
viability, T/C [7]: 94.2%
viability, T/C [8]: 91.6%
viability, T/C [9]: 104%
viability, T/C [10]: 112%
viability, T/C [11]: 122%
viability, T/C [12]: 105%
viability, T/C [13]: 83.5%
viability, T/C [14]: 82.7%
viability, T/C [15]: 85.4%
viability, T/C [16]: 93.2%
viability, T/C [17]: 103%
viability, T/C [18]: 85.8%
viability, T/C [19]: 59.1%
viability, T/C [20]: 58.9%
viability, T/C [21]: 61.6%
viability, T/C [22]: 62.5%
viability, T/C [23]: 64.8%
viability, T/C [24]: 48%
viability, T/C [25]: 42.3%
viability, T/C [26]: 45.3%
viability, T/C [27]: 46.7%
viability, T/C [28]: 46.1%
viability, T/C [29]: 45.7%
viability, T/C [30]: 33.6%
viability, T/C [31]: 31.1%
viability, T/C [32]: 31.4%
viability, T/C [33]: 32.7%
viability, T/C [34]: 31.7%
viability, T/C [35]: 27.6%
viability, T/C [36]: 26.7%
viability, T/C [37]: 24.8%
viability, T/C [38]: 24.3%
viability, T/C [39]: 23.2%
viability, T/C [40]: 26.3%
viability, T/C [41]: 29.3%
viability, T/C [42]: 25.7%

IC50 (curve of compound): > 100 nM
SMILES: Cn1ncnc1[C@H]1c2n[nH]c(=O)c3cc(F)cc(c23)N[C@@H]1c1ccc(F)cc1
viability, T/C (compound 0.000316 µM): 114% and 106% and 107% (2×)
viability, T/C (compound 0.00316 µM): 95.2% [middle of 4 runs]
viability, T/C (compound 0.01 µM): 92.4% [middle of 4 runs]
viability, T/C (compound 0.0316 µM): 94% [middle of 4 runs]
viability, T/C (compound 0.1 µM): 88.7% [middle of 4 runs]

IC50 [5]: > 10000 nM
IC50 [6]: > 10000 nM
IC50 [1]: > 10000 nM
IC50 [2]: > 10000 nM
IC50 [3]: > 10000 nM
IC50 [4]: > 10000 nM
SMILES: CNC(=O)c1ccc(N2C(=S)N(c3ccc(C#N)c(C(F)(F)F)c3)C(=O)C2(C)C)cc1F + CC(Nc1ccc2c(c1)OCCn1cc(N3C(=O)OCC3C(F)F)nc1-2)C(N)=O
viability, T/C [7]: 104%
viability, T/C [8]: 97.8%
viability, T/C [9]: 103%
viability, T/C [10]: 98%
viability, T/C [11]: 103%
viability, T/C [12]: 76.6%
viability, T/C [13]: 87.4%
viability, T/C [14]: 98%
viability, T/C [15]: 86.6%
viability, T/C [16]: 96%
viability, T/C [17]: 79.5%
viability, T/C [18]: 73%
viability, T/C [19]: 75.6%
viability, T/C [20]: 82.5%
viability, T/C [21]: 75%
viability, T/C [22]: 77.5%
viability, T/C [23]: 77.2%
viability, T/C [24]: 60.8%
viability, T/C [25]: 72.8%
viability, T/C [26]: 71.8%
viability, T/C [27]: 70.7%
viability, T/C [28]: 67.2%
viability, T/C [29]: 64%
viability, T/C [30]: 52.5%
viability, T/C [31]: 65.1%
viability, T/C [32]: 66.2%
viability, T/C [33]: 62.2%
viability, T/C [34]: 66.7%
viability, T/C [35]: 64.7%
viability, T/C [36]: 52.2%
viability, T/C [37]: 55.7%
viability, T/C [38]: 62.4%
viability, T/C [39]: 62.3%
viability, T/C [40]: 60.4%
viability, T/C [41]: 58.5%
viability, T/C [42]: 47.4%
